Where “and” joins values, the source holds several entries; their conditions need not be identical. Identical values can stand only once. Entries after “also recorded” stand apart in the source; their conditions may differ.
How the values were obtained:
AHSP = test: Determination of AHSP concentration in haemolysates by sandwich ELISA; type: in vivo, human
Protocol: (§1) We centrifuged 4 mL of whole blood from each subject for 5 min at 4° C., with blood samples processed within 2 h of collection. The plasma was gently removed, leaving 3 mm above the RBCs to retain the reticulocytes; the RBCs were washed with 0.15 M NaCl and then frozen at −80° C. They were thawed on ice and lysed with four volumes of cold distilled water, and incubated for 30 min at +4° C., before centrifugation at 16,000×g for 30 min at +4° C. The RBC lysate (haemolysate) was recovered as the supernatant and stored at −80° C.
We used high-binding 96-well ELISA plates (COSTAR High Binding ELISA Plates, Corning Incorporated, Corning, NY, USA). Following each step, up to 3,3′,5,5′-tetramethylbenzidine (TMB) addition, the wells were washed three times with 300 μL DPBS-0.05% Tween-20 (DPBS-TWEEN® Tablets, Calbiochem, Millipore Corporation, Burlington, MA, USA). The wells were coated with 100 μL/well anti-Ahsp antibody (EPR12319, diluted 1:1000 in DPBS) as the capture antibody. After 2 h at 37° C., the wells were washed and blocked by incubation for 2 h at 37° C. with 300 μL blocking buffer (0.15% BSA in DPBS). The wells were washed and left to dry in air, covered with SealPlate and stored at 4° C.
Serial dilutions of recombinant AHSP stored in −80° C. were prepared (0.395 to 3 ng/mL) in blocking buffer and added to the plate in duplicate in each assay, for construction of the calibration curve. Diluted recombinant AHSP were added to the coated wells (100 μL/well) and the plates were incubated for 2 h at 37° C. The plates were washed and 100 μL of biotin-conjugated rabbit polyclonal anti-human recombinant Ahsp antibody (Met1-Ser102) (ABIN2615200, Antibodies-online Gmb, Aachen, Germany, diluted 1:255 in blocking buffer), used as the detecting antibody, were added to each well, and the plates were incubated for 1 h at 37° C. The plates were washed five times and the samples were then incubated with 100 μL/well streptavidin-HRP (DY998, R&D Systems, Minneapolis, MN, USA, diluted 1:100 in blocking buffer) for 20 min at 37° C. in the dark. Next steps, washes and incubations, were performed in the dark. The reaction was developed by adding 50 μL/well TMB as a substrate (1-Step™ Ultra TMB-ELISA, Thermo Fisher Scientific). The plates were incubated for 5-10 min, and the reaction was then stopped by adding 50 μL/well 1 N sulfuric acid. Absorbance was measured immediately, at 450 nm (A450), with a microplate reader (Eon™, BioTek Instruments Inc, Winooski, Vermont, USA).
A standard curve was generated with known concentrations and absorbances of the recombinant human AHSP, with the EON microplate reader and Gen5 software.
The haemolysates were diluted 1:1000 in blocking buffer and added (100 μL/well) to the plate coated with the capture antibody. The plates were incubated for 2 h at 37° C., washed and 100 μL of the detecting antibody were added to each well, and then the plates were incubated for 1 h at 37° C. The further procedure is the same as for the AHSP range described above. The AHSP concentrations of the diluted haemolysates were determined by comparison to the standard curve expressed as ng per mL by the microplate reader. All the concentrations of AHSP obtained are the means of four ELISAs. Finally, taking into account the 1000-fold dilution of haemolysates, the final concentrations are reported in μg AHSP per mL of haemolysate.
The inter-subject variabilities were determined by calculating the CVs for four independent measurements of biological AHSP in each haemolysate.

α-Hb = test: In vitro α-Hb pool measurement in haemolysate (capture on GST-AHSP affinity support); type: in vivo, human; details: Treated SS patients (HC), n=10, mean ± SD; ng free α-Hb per mg total subunits per mL of lysed RBCs
Protocol: as §1
The α-Hb pool was assessed for the RBC lysates of all subjects (SS patients and controls), by capturing α-Hb subunits on GST-AHSP bound to an affinity chromatography support, as previously described.^15

SS patients = test: Routine clinical and laboratory (haematological and biological) data in SS patients with HC treatment
[1] = HC-treated SS patients, n=10, FIG. 1
[2] = Treated SS patients (HC), n=10, mean ± SD

## NC(=O)NO [HC, hydroxycarbamide]
AHSP; HC-treated SS patients, n=10
  AHSP concentration, interquartile range (IQR): 1.26 to 1.76 µg/mL
AHSP; [1]
  AHSP concentration, maximum value: 2.16 μg AHSP per mL of haemolysate
  AHSP concentration, minimum value: 1.18 μg AHSP per mL of haemolysate
AHSP; HC-treated vs untreated SS patients, remained higher than in controls
  Effect of HC treatment on AHSP concentration in RBCs (in words): significantly lower; also recorded: significantly decreased
AHSP; Individual HC-treated SS patients P13-P22, average of 3 or 4 independent measurements ± SD, haemolysate
  Measured [AHSP], individual treated patients: 1.37 ± 0.17 µg/mL and 2.16 ± 0.29 µg/mL and 1.99 ± 0.26 µg/mL and 1.32 ± 0.13 µg/mL and 1.18 ± 0.21 µg/mL and 1.29 ± 0.23 µg/mL and 1.19 ± 0.28 µg/mL and 1.34 ± 0.15 µg/mL and 1.44 ± 0.17 µg/mL and 1.69 ± 0.15 µg/mL
AHSP; Treated SS patients (HC), n=10, mean ± SD, RBC haemolysate
  Measured [AHSP], group mean: 1.50 ± 0.34 µg/mL
α-Hb
  α-Hb pool: 162 ± 31 ppm
SS patients; Treated SS patients (HC), n = 9, mean ± SD
  LDH: 403.2 ± 68.09 U/L
SS patients; [2]
  DRBCs (dense dehydrated RBCs, density > 1.110 g/mL): 4.3% and 4.3 ± 2.54%
  Ferritin: 333.2 ± 206.8 µg/L
  Haematocrit: 28.4 ± 4.74%
  Hb: 9.9 ± 1.58 g/dL
  HbA2: 2.04 ± 0.53%
  HbF: 21.51% and 21.51 ± 5.36%
  HbS: 76.45 ± 4.9%
  MCH: 39.7 ± 4.76 pg
  MCHC: 34.8 ± 0.79 g/dL
  MCHbF (% HbF × MCH): 8.69 ± 2.81 pg
  MCHbS (% HbS × MCH): 30.22 ± 2.89 pg
  MCV: 114.3 ± 13.43 fL
  Platelets: 355.8 ± 125.5 ×10^9/L
  RBC: 2.42 ± 0.45 ×10^12/L
  RDW: 17 ± 2.26%
  Reticulocytes: 114.7 ± 45.87 ×10^9/L
  Reticulocytes (%): 4.57 ± 1.79%
  Total bilirubin: 28.5 ± 14.18 µmol/L
SS patients; Treated SS patients (stable HC treatment for at least one year), n=10, mean ± SD
  WBC: 6.88 ± 1.46 ×10^9/L
